Experiments:
[1] = test system: PR-A; format: cell-based; details: PR-A efficacy minus PR-B efficacy
Procedure: The method for screening for PR isoform-specific progestins according to the present invention is carried out with first and second SK-N-MC cells stably transfected with a plasmid expressing the HPR-A (first cells) or the hPR-B (second cells) and the LUC reporter gene linked to the hormonally responsive MTV promoter.
The cells are cultured in Minimum Essential Medium with Earl's Salts (S-MEM, without L-glutamine; Gibco BRL, no. 21090-022), supplemented with 10% fetal calf serum (FCS), penicillin 100U/streptomycin 100 μg/ml (Biochrom, no. A2213), L-glutamine 4 mmol/l (Gibco BRL, no. 25030-024), sodium pyruvate 1 mmol/l (Biochrom, no. L0473) and 1×non-essential amino acids (Biochrom, no. K0293) at a temperature of 37° C. and in an atmosphere of 5% carbon dioxide.
For the transcription assay, the cells are seeded onto 96-well dishes (2×10^4 cells/dish) and cultured in a medium as described above, with the exception that the FCS is replaced by a 3% charcoal stripped FCS. 48 hours later, cells are contacted with prediluted test compounds. For determination of agonistic activity, cells are cultured in the presence of 6 increasing concentrations (10^−6 to 10^−11 mol/l) of test progestins. As a positive control for reporter gene induction cells are treated with 10^−6 to 10^−11 mol/l R5020 (promegestone). As a negative control for reporter gene induction, cells are cultured in 1% ethanol.
After incubation with test progestins for 24 hours, the medium is removed and cells are lysed with 20 μl of lysis buffer (Luciferase Assay System E 153A; Promega) and under agitation of the plate for 101 min. After addition of 30 μl of luciferase reagent (Luciferase Assay System E 151A+152A; Promega) within 30 seconds per plate, the activity of the luciferase reporter gene product is determined in the cell lysates by means of a Microlite ML 3000 microtiter plate luminometer (Dynatech) in cycle mode.
Evaluation of the response gives the efficacy [%], and evaluation of the EC50s values gives the potency [nM]. Calculation of the agonistic activity is conducted as follows:
The LUC activity [%] for the measured data points is calculated as follows:
[formula] wherein CI=100% stimulation (R5020, 10^−7 mol/l) and CO=0% stimulation (ethanol, 1%).
Thus, the efficacy [%] is calculated according to: […]
The potency [nM], i.e. the EC50, is determined graphically.

[2] = test system: pregnancy in ovariectomized rats; assay: Pregnancy maintenance test in rat; format: in vivo; details: ovariectomized pregnant rats, with estrone
Excerpt: In rats, castration induces termination of pregnancy. Progestins (combined with estrogens) are capable of maintaining pregnancy in castrated animals. However, the degree of pregnancy maintenance in castrated rats is optimal only in a defined dose range. Therefore, higher as well as lower doses generally induce a weaker effect. Accompanying treatment with defined doses of estrone (E1) increases the pregnancy maintaining effect of progestins.
Pregnant rats (Wistar Han, SPF) of 190 to 220 g (5 to 8 animals per dose) are ovariectomized on day 8 of pregnancy, 2 hours after the first substance administration. From day 8 to day 14, rats are daily treated with test progestin in combination with a standard dose of E1. One day later, animals are killed with carbon dioxide. For each animal, the number of living and dead fetuses is determined according to the heartbeat of the embryos. In case of empty uteri, the number of implantation sites is determined by means of staining with a 10% ammonium sulfide solution.
S.c. (subcutaneous) application: The test progestin is dissolved in benzyl benzoate/castor oil (1+4 v/v), and the daily dose is administered in a volume of 1 ml/kg body weight.
P.o. (peroral) application: The test progestin is suspended in a carrier liquid (85 mg Myrj^R in 100 ml 0.9% w/v NaCl solution), and the daily dose is administered in a volume of 2 ml/kg body weight.
I.p. (intraperitoneal) application: The test progestin is dissolved in propylene glycol and charged in miniature osmotic pumps (type 2001, 1.0 μl/h, 7 days), which are placed in the abdominal cavity of the rat.
The standard dose of estrone is 0.005 mg/kg body weight s.c. and is dissolved in benzyl benzoate/castor oil ([…]).
It is determined the pregnancy maintenance per animal [%], the pregnancy maintenance per dose (median of single values) and the EC50 (dose, at which pregnancy is maintained in 50% of the animals; 100% corresponds to control animals that are not ovariectomized). The results of the test are further discussed below in c).

[3] = test system: rat mammary epithelium; assay: MIB-5 immunohistochemistry, proliferation of the mammary epithelium; format: in vivo; details: 0.3 mg/kg/d, FIG. 2
Procedure: In order to determine the effects of test progestins according to the present invention, in particular compound ((+)-1), in mammary gland differentiation and proliferation, premature female rats (Wistar Han, SPF) are ovariectomized at the age of 21 days, 4 to 6 days before treatment start. The animals are treated for 6 days with standard estrogen (estrone (E1), 70 μg/kg) and the test progestin ((+)-1) (application volume: 0.1 ml/50 g body weight; vehicle: benzylbenzoate/castor oil (1+4 v/v); subcutaneous). Control groups are e.g.: vehicle, estrone without progestin, estradiol together with a known progestin, e.g. R5020 (promegestone). After the 6-day treatment the animals are killed with carbon dioxide.
For the whole mount staining, animals are shaved in the left abdominal inguinal mammary region, which is cut from the body together with the skin. For the histological/immunohistochemical analyses the right abdominal inguinal mammary gland is cut from the body together with the connective-tissue adhered thereto and fixed in 3.7% formalin in PBS (phosphate buffer saline; without Ca^2+/Mg^2+).
For a more detailed evaluation of the proliferation of the mammary epithelium, cells are stained with the proliferation marker MIB-5 as follows (cf. FIG. 2): Mammary glands are fixed in 4% formaldehyde/PBS for 24 h and embedded in paraffm. 4 μm sections are spread on slides, deparaffinized, treated with microwaves for 10 min. in citrate buffer pH 6.0 and rinsed with PBS. Slides are then blocked with 3% H2O2/methanol for 15 min., Blockingkit (Vektor, no. SP-2001) for 10 min. and rat serum (Sigma, no. S-7648) diluted 1:2 in PBS for 30 min to reduce nonspecific staining and rinsed in PBS. Slides are incubated for 1 hour with monoclonal antibody MIB-5 (Dianova, no. Dia-5055), which is specific for the rat Ki-67 antigen (1:200 diluted in PBS/0.2% BSA). […]
In order to characterize a test compound, the percentage of MIB-5 stained mammary epithelium cells is determined. […]

SMILES	Δ agonism efficacies (A-B) [1]	further results
Cc1noc(=O)c2ccc(NC(=O)C(C)(O)CC3(c4cccc(C(F)(F)F)c4)CC3)cc12 (single isomer, unassigned; (+)) [((+)-3), (+)-6-{2-hydroxy-3-[1-(3-trifluoromethylphenyl)-cyclopropyl]-2-methyl-propionylamino}-4-methyl-2,3-benzoxazin-1-one]	23	–
O=C1OCc2cc(NC(=O)C(O)(CC3(c4cccc(C(F)(F)F)c4F)CC3)C(F)(F)F)ccc21 (single isomer, unassigned; (+)) [((+)-4), (+)-5-{2-hydroxy-3-[1-(2-fluoro-3-trifluoromethylphenyl)-cyclopropyl]-2-trifluoromethyl-propionylamino}-phthalide]	18	–
CCC(=O)[C@@]1(C)CC[C@H]2[C@@H]3CCC4=CC(=O)CCC4=C3CC[C@@]21C [R5020, promegestone, reference compound]	–	Maintenance of pregnancy (rat) [EC50] [2]: 0.1 mg/kg/day; MIB-5 positive cells [3]: ~42%
Cc1noc(=O)c2ccc(NC(=O)C(C)(O)CC3(c4cccc(C(F)(F)F)c4)CC3)cc12 (single isomer, unassigned; (-)) [((−)-3), (−)-6-{2-Hydroxy-3-[1-(3-trifluoromethylphenyl)-cyclopropyl]-2-methyl-propionylamino}-4-methyl-2,3-benzoxazin-1-one]	–	melting point: 129 to 130 °C
Cc1noc(=O)c2ccc(NC(=O)C(O)(CC3(c4cccc(C(F)(F)F)c4F)CC3)C(F)(F)F)cc12 (single isomer, unassigned; (+)) [((+)-2), (+)-6-{2-hydroxy-3-[1-(2-fluoro-3-trifluoromethylphenyl)-cyclopropyl]-2-trifluoro-methyl-propionylamino}-4-methyl-2,3-benzoxazin-1-one]	32	–

Reference: US7388006B2, “Non-steroidal progesting” (Bayer Schering Pharma AG, priority 2002, dated 2008)
